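Each compound was tested at five concentrations against cells in 96-well plates for 48 hours. Abbreviation: GI50, concentration required for 50% inhibition of growth. TGI denotes the concentration required for complete inhibition of growth.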
Experiments:
Test in all cases: NCI-60 cell line screen, 48 h; in the data active = GI50 below about 0.43 µM; inactive = the rest
786-0 renal = test system: 786-0 renal
A498 renal = test system: A498 renal
A549 NSCLC = test system: A549 NSCLC
ACHN renal = test system: ACHN renal
BT-549 breast = test system: BT-549 breast
CCRF-CEM leukemia = test system: CCRF-CEM leukemia
COLO 205 colon = test system: COLO 205 colon
DU-145 prostate = test system: DU-145 prostate
EKVX NSCLC = test system: EKVX NSCLC
HCC-2998 colon = test system: HCC-2998 colon
HCT-116 colon = test system: HCT-116 colon
HCT-15 colon = test system: HCT-15 colon
HL-60(TB) leukemia = test system: HL-60(TB) leukemia
HOP-62 NSCLC = test system: HOP-62 NSCLC
HOP-92 NSCLC = test system: HOP-92 NSCLC
HS 578T breast = test system: HS 578T breast
HT29 colon = test system: HT29 colon
IGROV1 ovarian = test system: IGROV1 ovarian
K-562 leukemia = test system: K-562 leukemia
KM12 colon = test system: KM12 colon
LOX IMVI melanoma = test system: LOX IMVI melanoma
M14 melanoma = test system: M14 melanoma
MALME-3M melanoma = test system: MALME-3M melanoma
MCF7 breast = test system: MCF7 breast
MDA-MB-231 breast = test system: MDA-MB-231 breast
MDA-MB-435 = test system: MDA-MB-435
MOLT-4 leukemia = test system: MOLT-4 leukemia
NCI-H226 lung = test system: NCI-H226 lung
NCI-H23 lung = test system: NCI-H23 lung
NCI-H460 lung = test system: NCI-H460 lung
NCI-H522 lung = test system: NCI-H522 lung
NCI/ADR-RES ovarian = test system: NCI/ADR-RES ovarian
OVCAR-3 ovarian = test system: OVCAR-3 ovarian
OVCAR-4 ovarian = test system: OVCAR-4 ovarian
OVCAR-5 ovarian = test system: OVCAR-5 ovarian
OVCAR-8 ovarian = test system: OVCAR-8 ovarian
PC-3 prostate = test system: PC-3 prostate
RPMI-8226 leukemia = test system: RPMI-8226 leukemia
RXF 393 renal = test system: RXF 393 renal
SF-268 CNS = test system: SF-268 CNS
SF-295 CNS = test system: SF-295 CNS
SF-539 CNS = test system: SF-539 CNS
SK-MEL-2 melanoma = test system: SK-MEL-2 melanoma
SK-MEL-28 melanoma = test system: SK-MEL-28 melanoma
SK-MEL-5 melanoma = test system: SK-MEL-5 melanoma
SK-OV-3 ovarian = test system: SK-OV-3 ovarian
SN12C renal = test system: SN12C renal
SNB-19 CNS = test system: SNB-19 CNS
SNB-75 CNS = test system: SNB-75 CNS
SR leukemia = test system: SR leukemia
SW-620 colon = test system: SW-620 colon
T-47D breast = test system: T-47D breast
TK-10 renal = test system: TK-10 renal
U251 CNS = test system: U251 CNS
UACC-257 melanoma = test system: UACC-257 melanoma
UACC-62 melanoma = test system: UACC-62 melanoma
UO-31 renal = test system: UO-31 renal

C=C1[C@@H](C)C2[C@H](Cc3ccccc3)NC(=O)[C@]23[C@H](OC(C)=O)/C=C/[C@@](C)(O)C(=O)[C@@H](C)C/C=C/[C@H]3[C@@H]1O (stereo not given in full)
4.19 µM: TGI (RXF 393 renal)
> 11.8 µM: TGI (SK-MEL-5 melanoma)
inactive: GI50 (A549 NSCLC) 0.915 µM | GI50 (ACHN renal) 1.32 µM | GI50 (BT-549 breast) 0.528 µM | GI50 (CCRF-CEM leukemia) > 11.8 µM | GI50 (COLO 205 colon) 2.32 µM | GI50 (DU-145 prostate) 7.04 µM | GI50 (EKVX NSCLC) 0.975 µM | GI50 (HCC-2998 colon) > 16.7 µM | GI50 (HCT-116 colon) 0.718 µM | GI50 (HL-60(TB) leukemia) 5.31 µM | GI50 (IGROV1 ovarian) 0.574 µM | GI50 (K-562 leukemia) > 16.7 µM | GI50 (KM12 colon) > 16.7 µM | GI50 (M14 melanoma) > 11.4 µM | GI50 (MALME-3M melanoma) > 16.7 µM | GI50 (MCF7 breast) 0.756 µM | GI50 (MDA-MB-435) > 16.7 µM | GI50 (NCI-H226 lung) 16.5 µM | GI50 (NCI-H23 lung) > 16.7 µM | GI50 (NCI-H460 lung) 0.571 µM | GI50 (NCI/ADR-RES ovarian) > 16.7 µM | GI50 (OVCAR-3 ovarian) > 16.7 µM | GI50 (OVCAR-4 ovarian) 0.824 µM | GI50 (OVCAR-5 ovarian) > 9.92 µM | GI50 (OVCAR-8 ovarian) > 16.7 µM | GI50 (PC-3 prostate) > 16.7 µM | GI50 (RPMI-8226 leukemia) 3.84 µM | GI50 (SF-295 CNS) 1.16 µM | GI50 (SK-MEL-2 melanoma) > 16.7 µM | GI50 (SK-MEL-28 melanoma) > 16.7 µM | GI50 (SK-MEL-5 melanoma) 0.955 µM | GI50 (SN12C renal) > 16.7 µM | GI50 (SR leukemia) > 15.7 µM | GI50 (SW-620 colon) > 16.7 µM | GI50 (T-47D breast) > 16.7 µM | GI50 (TK-10 renal) 0.714 µM | GI50 (UACC-257 melanoma) > 16.7 µM | GI50 (UACC-62 melanoma) > 16.7 µM
0.699 µM: TGI (HOP-92 NSCLC)
3.58 µM: TGI (UO-31 renal)
> 15.2 µM: TGI (SK-OV-3 ovarian)
> 16.7 µM: TGI (786-0 renal) | TGI (A549 NSCLC) | TGI (ACHN renal) | TGI (BT-549 breast) | TGI (CCRF-CEM leukemia) | TGI (COLO 205 colon) | TGI (DU-145 prostate) | TGI (EKVX NSCLC) | TGI (HCC-2998 colon) | TGI (HCT-116 colon) | TGI (HCT-15 colon) | TGI (HL-60(TB) leukemia) | TGI (HS 578T breast) | TGI (HT29 colon) | TGI (IGROV1 ovarian) | TGI (K-562 leukemia) | TGI (KM12 colon) | TGI (M14 melanoma) | TGI (MALME-3M melanoma) | TGI (MCF7 breast) | TGI (MDA-MB-231 breast) | TGI (MDA-MB-435) | TGI (MOLT-4 leukemia) | TGI (NCI-H226 lung) | TGI (NCI-H23 lung) | TGI (NCI-H460 lung) | TGI (NCI-H522 lung) | TGI (NCI/ADR-RES ovarian) | TGI (OVCAR-3 ovarian) | TGI (OVCAR-4 ovarian) | TGI (OVCAR-5 ovarian) | TGI (OVCAR-8 ovarian) | TGI (PC-3 prostate) | TGI (RPMI-8226 leukemia) | TGI (SF-268 CNS) | TGI (SF-295 CNS) | TGI (SF-539 CNS) | TGI (SK-MEL-2 melanoma) | TGI (SK-MEL-28 melanoma) | TGI (SN12C renal) | TGI (SNB-19 CNS) | TGI (SR leukemia) | TGI (SW-620 colon) | TGI (T-47D breast) | TGI (TK-10 renal) | TGI (U251 CNS) | TGI (UACC-257 melanoma) | TGI (UACC-62 melanoma)
0.826 µM: TGI (A498 renal)
> 8.76 µM: TGI (LOX IMVI melanoma)
> 4.4 µM: TGI (HOP-62 NSCLC)
0.12 µM: TGI (SNB-75 CNS)
active: GI50 (A498 renal) 0.11 µM | GI50 (HOP-62 NSCLC) 0.035 µM | GI50 (HOP-92 NSCLC) 0.099 µM | GI50 (HS 578T breast) 0.0826 µM | GI50 (HT29 colon) 0.0933 µM | GI50 (LOX IMVI melanoma) 0.272 µM | GI50 (MDA-MB-231 breast) 0.366 µM | GI50 (RXF 393 renal) 0.105 µM | GI50 (SF-268 CNS) 0.228 µM | GI50 (SF-539 CNS) 0.322 µM | GI50 (SK-OV-3 ovarian) 0.0997 µM | GI50 (SNB-19 CNS) 0.265 µM | GI50 (SNB-75 CNS) 0.0126 µM | GI50 (U251 CNS) 0.105 µM | GI50 (UO-31 renal) 0.251 µM

— PubChem BioAssay (NCI)
